Experimental data taken from US8361996B2, “Imidazolyl substituted steroidal and indan-1-one derivatives” (Council of Scientific and Industrial Research, priority 2005, dated 2013).
Where two headings read alike, the source gives them in different places.

Legend:
aromatase (CYP19) = target: T1, aromatase (CYP19) (Homo sapiens, UniProt P11511); test: Inhibition of aromatase, human placental microsomes, 3H2O release; format: biochemical
T1 construct: The enzyme was obtained from the microsomal fraction of freshly delivered human term placental tissue; from tissue; host or cells: human term placenta, microsomal fraction
T1 sequence (P11511 1-503): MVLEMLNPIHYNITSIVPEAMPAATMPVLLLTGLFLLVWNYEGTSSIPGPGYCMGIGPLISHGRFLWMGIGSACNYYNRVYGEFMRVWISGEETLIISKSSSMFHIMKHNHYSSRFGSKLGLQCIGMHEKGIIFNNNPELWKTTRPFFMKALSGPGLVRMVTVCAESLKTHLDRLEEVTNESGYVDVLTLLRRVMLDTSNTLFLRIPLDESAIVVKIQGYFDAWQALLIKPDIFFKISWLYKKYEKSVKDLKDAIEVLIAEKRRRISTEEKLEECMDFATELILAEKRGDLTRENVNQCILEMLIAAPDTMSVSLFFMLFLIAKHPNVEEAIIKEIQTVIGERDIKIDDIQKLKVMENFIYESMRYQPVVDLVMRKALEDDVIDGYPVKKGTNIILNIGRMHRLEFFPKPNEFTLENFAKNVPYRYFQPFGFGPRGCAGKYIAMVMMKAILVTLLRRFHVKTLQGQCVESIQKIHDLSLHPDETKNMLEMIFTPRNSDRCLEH

[1] = human placental microsomes and [1β,2β-3H] testosterone
[2] = Substrate: 1β 3H-androstenedione/androstenedione 500 nm

Structure (SMILES) | melting point | aromatase inhibitory activity (in words) (aromatase (CYP19); [1]) | Inhibition on CYP19a RP: Relative potency; relative to aminoglutethimide (=1) (aromatase (CYP19); [2]) | further results
C[C@]12CC[C@H]3[C@@H](CC=C4C[C@@H](O)CC[C@@]43C)[C@@H]1C[C@H](n1ccnc1)[C@@H]2O | 285 to 287 °C | – | – | –
C[C@]12CC[C@H]3[C@@H](CC=C4C[C@@H](O)CC[C@@]43C)[C@@H]1C/C(=C\c1cccc(OCCCn3ccnc3)c1)[C@@H]2O [Compound 20, 16-[3-{3-(imidazol-1-yl)propoxy}benzylidene]-5-androstene-3β,17β-diol] | 133 to 135 °C | significant aromatase inhibitory activity | – | Inhibition on CYP19a RP: Relative potency; relative to aminoglutethimide (=1) (aromatase (CYP19)): IC50: 9.1 μM RP: 3.3; IC50 (aromatase (CYP19); Substrate: 1β 3H-androstenedione/androstenedione 500 nm, read-out: Inhibition on CYP19a IC50): 9.1 µM
COc1cc(/C=C2\C[C@H]3[C@@H]4CC=C5C[C@@H](O)CC[C@]5(C)[C@H]4CC[C@]3(C)[C@H]2O)ccc1OCCCn1ccnc1 [Compound 14, 16-[4-{3-(Imidazol-1-yl)propoxy}-3-methoxybenzylidene]-5-androstene-3β,17β-diol] | – | significant aromatase inhibitory activity | 12.4 | –
C[C@]12CC[C@H]3[C@@H](/C(=N\OCCCn4ccnc4)C=C4C[C@@H](O)CC[C@@]43C)[C@@H]1CC[C@@H]2O [Compound 25, 7-[O-{3-(Imidazol-1-yl)propyl}oximino]-5-androstene-3β,17β-diol] | 205 to 206 °C | significant aromatase inhibitory activity | IC50: 12 μM RP: 2.5 | IC50 (aromatase (CYP19)): 12 µM
CC(=O)O[C@H]1CC[C@@]2(C)C(=CC[C@H]3[C@@H]4C[C@H](n5ccnc5)[C@H](OC(C)=O)[C@@]4(C)CC[C@@H]32)C1 | 197 to 199 °C | – | – | –
CC(=O)O[C@H]1CC[C@@]2(C)C(=C/C(=N\OCCCn3ccnc3)[C@H]3[C@@H]4CC[C@H](OC(C)=O)[C@@]4(C)CC[C@@H]32)C1 [Compound 24, 7-[O-{3-(imidazol-1-yl)propyl}oximino]-5-androstene-3β,17β-diol diacetate] | 180 to 182 °C | significant aromatase inhibitory activity | IC50: 3.1 μM RP: 9.6 | IC50 (aromatase (CYP19)): 3.1 µM
C[C@]12CCC(=O)C=C1CCC1C2CC[C@]2(C)C(=O)/C(=C/c3cccc(OCCCn4ccnc4)c3)CC12 (stereo partly drawn) [Compound 22, 16-[3-{3-(imidazol-1-yl)propoxy}benzylidene]-4-androstene-3,17-dione] | – | significant aromatase inhibitory activity | – | –
C[C@]12CC[C@H](O)CC1=CC[C@@H]1[C@@H]2CC[C@]2(C)C(=O)[C@@H](n3ccnc3)C[C@@H]12 [Compound 27, 16β-(Imidazol-1-yl)-17-oxo-5-androsten-3β-ol] | 249 to 251 °C | significant aromatase inhibitory activity | IC50: 3.3 Mm RP: 9.0 | –

Second part, led by results:

melting point | Structure (SMILES) | aromatase inhibitory activity (in words) (aromatase (CYP19); [1]) | Inhibition on CYP19a RP: Relative potency; relative to aminoglutethimide (=1) (aromatase (CYP19); [2]) | further results
109 to 111 °C | COc1cc(C=C2C[C@H]3[C@@H]4CC=C5C[C@@H](OC(C)=O)CC[C@]5(C)[C@H]4CC[C@]3(C)C2=O)ccc1OCCCn1ccnc1 | – | – | –
211 to 212 °C | C[C@]12CC[C@H](O)CC1=CC[C@@H]1[C@@H]2CC[C@]2(C)C(=O)C(=Cc3cccc(OCCCn4ccnc4)c3)C[C@@H]12 | – | – | –
97 to 99 °C | CC(=O)O[C@H]1CC[C@@]2(C)C(=CC[C@H]3[C@@H]4CC(=Cc5cccc(OCCCn6ccnc6)c5)[C@H](OC(C)=O)[C@@]4(C)CC[C@@H]32)C1 | – | – | –
176 to 180 °C | COc1ccc(/C=C2\Cc3ccccc3C2=O)cc1OCCCn1ccnc1 [Compound 6, 2-[3-(3-Imidazol-1-ylpropoxy)-4-methoxybenzylidene)indan-1-one] | good aromatase inhibitory activity | 22.5 | –
218 to 220 °C | O=C1C(=Cc2cccc(OCCn3ccnc3)c2)Cc2ccccc21 [Compound 10, 2-[3-(2-Imidazol-1-ylethoxy)-benzylidene]indan-1-one] | – | – | –
48 to 50 °C | O=C1/C(=C/c2cccc(OCCCn3ccnc3)c2)Cc2ccccc21 [Compound 2, 2-[3-(3-Imidazol-1-yl-propoxy)-benzylidene]-indan-1-one] | good aromatase inhibitory activity | 42.5 | –
123 to 127 °C | COc1cc(/C=C2\Cc3ccccc3C2=O)ccc1OCCCn1ccnc1 [Compound 8, 2-[4-(3-Imidazol-1-ylpropoxy)-3-methoxybenzylidene)indan-1-one] | good aromatase inhibitory activity | 54.1 | IC50 (aromatase (CYP19); human placental microsomes and [1β,2β-3H] testosterone, read-out: IC50 for the aromatase inhibitory activity): 0.55 µM
199 to 201 °C | COc1cc(C=C2C[C@H]3[C@@H]4CC=C5C[C@@H](O)CC[C@]5(C)[C@H]4CC[C@]3(C)C2=O)ccc1OCCCn1ccnc1 | – | – | –
76 to 78 °C | O=C1/C(=C/c2ccccc2OCCCn2ccnc2)Cc2ccccc21 [Compound 4, 2-[2-(3-Imidazol-1-yl-propoxy)-benzylidene]-indan-1-one] | good aromatase inhibitory activity | 26.6 | –
163 to 168 °C | COc1cc(C=C2C[C@H]3[C@@H]4CC=C5C[C@@H](OC(C)=O)CC[C@]5(C)[C@H]4CC[C@]3(C)[C@H]2OC(C)=O)ccc1OCCCn1ccnc1 | – | – | –
